Data reported in ChEMBL document CHEMBL1201862, “PubChem BioAssay data set” (2004).
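96-well plates; 48 h exposure; 5 concentrations. Endpoints by linear interpolation between flanking doses. Not reached: highest tested concentration assigned. GI50 is the concentration that inhibits growth by half.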 Active and inactive are the calls of the source. No stated cut-off is given here; in the data, active = GI50 up to about 1.1 µM and inactive = higher.

Legend:
Experiment in all cases: DTP human tumour cell line panel, 48 h
A498 = test system: A498
CAKI-1 = test system: CAKI-1
DU-145 = test system: DU-145
HCT-116 = test system: HCT-116
HCT-15 = test system: HCT-15
MOLT-4 = test system: MOLT-4
NCI-H460 = test system: NCI-H460
NCI/ADR-RES = test system: NCI/ADR-RES
OVCAR-5 = test system: OVCAR-5
OVCAR-8 = test system: OVCAR-8
SF-268 = test system: SF-268
SF-539 = test system: SF-539
SK-MEL-5 = test system: SK-MEL-5
SN12C = test system: SN12C
SR = test system: SR
T47D = test system: T47D
UACC-62 = test system: UACC-62
UO-31 = test system: UO-31
MDA-N = test system: MDA-N

SMILES | GI50 (A498) | GI50 (CAKI-1) | GI50 (DU-145) | GI50 (HCT-116) | GI50 (HCT-15) | GI50 (MOLT-4) | GI50 (NCI-H460) | GI50 (NCI/ADR-RES) | GI50 (OVCAR-5) | GI50 (OVCAR-8) | GI50 (SF-268) | GI50 (SF-539) | GI50 (SK-MEL-5) | GI50 (SN12C) | GI50 (SR) | GI50 (T47D) | GI50 (UACC-62) | GI50 (UO-31) | GI50 (MDA-N)
CCCCCCc1cc2cc(-c3cn4ccsc4n3)c(=O)oc2cc1O | > 100 µM (inactive) | > 71.1 µM (inactive) | > 79.1 µM (inactive) | > 67.6 µM (inactive) | > 90.4 µM | > 100 µM (inactive) | > 100 µM (inactive) | > 100 µM (inactive) | > 100 µM (inactive) | > 53.3 µM (inactive) | > 58.2 µM (inactive) | 64.3 µM (inactive) | > 30.9 µM (inactive) | > 100 µM (inactive) | > 100 µM (inactive) | > 100 µM (inactive) | 19.1 µM (inactive) | > 100 µM (inactive) | 
Nc1ccc(C(=O)NN2C(=O)[C@H](Cl)C2c2ccc(Cl)cc2)cc1 (stereo partly drawn) |  | 1.4 µM (inactive) | 1.56 µM (inactive) | 0.434 µM (active) | 0.646 µM | 1.09 µM (active) | 2.08 µM (inactive) | 1.65 µM (inactive) | 4.2 µM (inactive) | 1.76 µM (inactive) | 1.06 µM (active) | 1.79 µM (inactive) | 1.93 µM (inactive) | 1.04 µM (active) | 0.324 µM (active) | 1.85 µM (inactive) | 1.68 µM (inactive) | 2.07 µM (inactive) | 
O=S(=O)(c1ccccc1)n1c(C(O)c2ccccc2)cc2ccccc21 (stereo not drawn) | 10.2 µM (inactive) | 17.7 µM (inactive) | 33.9 µM (inactive) | 16.5 µM (inactive) | 21.3 µM | 36.4 µM (inactive) | 25.3 µM (inactive) | 13.1 µM (inactive) | 15.7 µM (inactive) | 16.9 µM (inactive) | 16.3 µM (inactive) | 16.7 µM (inactive) | 14.6 µM (inactive) |  |  | 21.3 µM (inactive) | 12.9 µM (inactive) | 11.7 µM (inactive) | 
CC(C(=O)c1ccccc1)C1(O)C(=O)Nc2ccccc21 (stereo not drawn) | > 100 µM (inactive) | > 100 µM (inactive) |  | > 100 µM (inactive) | > 100 µM | > 100 µM (inactive) | > 100 µM (inactive) |  | > 100 µM (inactive) |  | > 100 µM (inactive) | > 100 µM (inactive) | > 100 µM (inactive) | > 100 µM (inactive) | > 100 µM (inactive) |  | > 100 µM (inactive) | > 100 µM (inactive) | 
COC(=O)[C@@H]1O[C@]12C(CO[Si](C)(C)C(C)(C)C)OC(n1ccc(=O)[nH]c1=O)C2O[Si](C)(C)C(C)(C)C (stereo partly drawn) | > 10 µM (inactive) | 19.7 µM (inactive) | 25.2 µM (inactive) | 23.3 µM (inactive) | 28.3 µM | 8.36 µM (inactive) | 15.5 µM (inactive) | 30.8 µM (inactive) | 25.1 µM (inactive) | 30.9 µM (inactive) | 30.4 µM (inactive) | 19.7 µM (inactive) | 19.6 µM (inactive) | 30.6 µM (inactive) | > 10 µM (inactive) |  | 24.2 µM (inactive) | 18.9 µM (inactive) | 33.1 µM (inactive)
CC(C)(C)n1c(=O)n(-c2ccccc2)n(C(C)(C)C)c1=O | > 100 µM (inactive) | > 100 µM (inactive) |  | > 100 µM (inactive) | > 100 µM | > 100 µM (inactive) | > 100 µM (inactive) | > 100 µM (inactive) | > 100 µM (inactive) | > 100 µM (inactive) |  | > 100 µM (inactive) | > 100 µM (inactive) | > 100 µM (inactive) | > 100 µM (inactive) |  | > 100 µM (inactive) | > 100 µM (inactive) | > 100 µM (inactive)
CN(c1ccc(Cl)cc1)S(=O)(=O)c1cccc([N+](=O)[O-])c1 |  | 64.6 µM (inactive) | > 100 µM (inactive) | 34 µM (inactive) | 47.1 µM | 17.2 µM (inactive) | 42.3 µM (inactive) | 36.7 µM (inactive) | 87.3 µM (inactive) | > 100 µM (inactive) | 66.7 µM (inactive) | 66.4 µM (inactive) | 27.4 µM (inactive) | > 100 µM (inactive) | 52.6 µM (inactive) |  | 39.4 µM (inactive) | 39.9 µM (inactive) | 67.9 µM (inactive)
Cc1ccc(NC(=O)CC(=O)N2N=C(c3ccccc3)C(/N=N/c3ccc(S(=O)(=O)CCOS(=O)(=O)O)cc3)C2=O)cc1 (stereo not drawn) | > 100 µM (inactive) | > 100 µM (inactive) | > 100 µM (inactive) | 57.9 µM (inactive) | > 100 µM | > 100 µM (inactive) | > 100 µM (inactive) | > 100 µM (inactive) | > 100 µM (inactive) | 64.3 µM (inactive) | > 100 µM (inactive) | > 100 µM (inactive) | > 100 µM (inactive) | > 100 µM (inactive) | > 100 µM (inactive) |  |  | > 100 µM (inactive) | > 100 µM (inactive)
COc1ccc(OC)c(C(Cc2ccnc3ccccc23)Cc2ccnc3ccccc23)c1 | > 10 µM (inactive) | > 10 µM (inactive) | > 10 µM (inactive) | 0.857 µM (active) | 6.44 µM | 5.79 µM (inactive) | 5.47 µM (inactive) | 8.39 µM (inactive) | > 10 µM (inactive) | > 10 µM (inactive) | > 10 µM (inactive) | > 10 µM (inactive) | 3.66 µM (inactive) | > 10 µM (inactive) |  | 6.25 µM (inactive) | > 10 µM (inactive) | 6.68 µM (inactive) | 
CC1[C@@H](OCc2ccccc2)COC(=O)N1Cc1ccccc1 (stereo partly drawn) |  |  | > 100 µM (inactive) | > 100 µM (inactive) | > 100 µM | 33.3 µM (inactive) |  | 49.4 µM (inactive) | > 100 µM (inactive) | > 100 µM (inactive) | > 100 µM (inactive) |  | 69.5 µM (inactive) | > 100 µM (inactive) | > 100 µM (inactive) |  | > 100 µM (inactive) | 32.7 µM (inactive) | > 100 µM (inactive)
CSc1ncnc2c1ncn2CCC(=O)O | > 100 µM (inactive) | > 100 µM (inactive) | > 100 µM (inactive) | > 100 µM (inactive) |  | > 100 µM (inactive) | > 100 µM (inactive) | > 100 µM (inactive) | > 100 µM (inactive) | > 100 µM (inactive) | > 100 µM (inactive) | > 100 µM (inactive) | > 100 µM (inactive) | > 100 µM (inactive) | > 100 µM (inactive) |  | > 100 µM (inactive) | > 100 µM (inactive) | > 100 µM (inactive)
CCCCCCCC/C=C\CCCCCCCC(=O)OC[C@]1(CO)CCC(=O)O1 | > 100 µM (inactive) | > 100 µM (inactive) | > 100 µM (inactive) | > 100 µM (inactive) | > 100 µM | > 100 µM (inactive) | > 100 µM (inactive) | > 100 µM (inactive) | > 100 µM (inactive) | > 100 µM (inactive) | > 100 µM (inactive) |  | > 100 µM (inactive) | > 100 µM (inactive) | > 100 µM (inactive) | > 100 µM (inactive) | > 100 µM (inactive) | > 100 µM (inactive) | 
